# Measured values from patent US20030171371A1, “Immunosuppressant n-acyles homoserine lactones” (priority 2000, published 2003).
# Experiments:
# human PBMC = assay: ConA mitogen-stimulated proliferation of human PBMC ([3H]-thymidine incorporation); type: cell-based; details: FIG. 2
# Protocol: II. ConA Mitogen-Stimulated Proliferation of Human PBMC
# Blood specimens were obtained with consent from healthy human volunteers. Human peripheral blood mononuclear cells (PBMC) were isolated from heparinised whole blood by buoyant density centrifugation over Histopaque 1077 (Sigma, Poole, UK) at 600 g for 20 minutes. PBMC harvested from the ‘buffy’ layers were washed twice with RPMI 1640 medium and resuspended in CTCM. HSL compounds were tested at similar dilutions as for murine splenocytes in 200 μl of CTCM, containing 1 μg/ml of ConA and 100,000 PBMC. Human PBMC were incubated for 48 h at 37° C. in 5% CO2-air, followed by pulsing with 0.25 μCi [^3H]-thymidine (see above). After a further incubation of 24 h cells were harvested onto fibreglass filters and then counted in the presence of MicroScint-O with the Packard TopCount.
# Concanavalin induced cell proliferation of human peripheral blood mononuclear cells (PBMC) was tracked, as described in I above, by a measurement of counts per minute using the scintillation counter. The inhibitory effect of an HSL compound being tested on cell proliferation was indicated by a reduction in counts per minute.
# Columns B, C and D represent different sources of human PBMC samples used.
# murine splenocytes = assay: ConA mitogen-stimulated proliferation of murine splenocytes ([3H]-thymidine incorporation); type: cell-based, mouse (BALB/c); details: for effect on ConA induced splenocyte proliferation (cpm vs concentration): FIG. 1
# Protocol: Proliferation was assessed by the incorporation of [^3H]-thymidine into DNA. Eight-week-old female BALB/c mice were obtained from Harlan (Bicester, Oxon, UK) and given food and water ad libitum. Splenocyte suspensions were prepared by removing the spleens and placing them into RPMI 1640 medium. The spleens were forced through 70-μm-pore-size wire gauzes using the plunger from a 5-ml syringe to produce a single cell suspension. […] Leucocytes were washed twice with RPMI 1640 medium with 2% (vol/vol) foetal calf serum (FCS) and resuspended in complete cell culture medium (CTCM) consisting of RPMI 1640 medium with 5% FCS, 2 mM L-glutamine, and 5×10^−5 M 2-mercaptoethanol. HSL compounds were tested at doubling down dilutions ranging from 1 mM to 0.1 μM in a final volume of 200 μl of CTCM, containing ConA (Sigma, Poole, UK) at 1 μg/ml and 100,000 spleen cells. Following incubation for 48 h at 37° C. in 5% CO2-air, 0.25 μCi [^3H]-thymidine (Amersham) in 10 μl volume made up in RPMI 1640 medium was added and the cells were incubated for a further 24 h. Cells were harvested onto fibreglass filters with a Packard filtermate harvester. After the addition of 25 μl of MicroScint-O (Packard) to each well the filters were counted with the Packard TopCount scintillation counter.
# Mitogen (Concanavalin A) induced murine splenocyte proliferation was indicated by the incorporation of tritated thymidine into the DNA in the mouse spleen cells as shown by counts per minute using the scintillation counter. The inhibitory effect of an HSL compound being tested on cell proliferation was indicated by a reduction in counts per minute.
# [1] = tested on: TNF-a production by LPS-stimulated adherent murine peritoneal macrophages; details: literature report; cited from earlier work
# [2] = tested on: TNF-alpha production from LPS-stimulated human PBMC; assay: TNF-alpha production from LPS-stimulated human PBMC (sandwich ELISA); type: cell-based; details: FIG. 3, FIG. 5
# Protocol: Bacterial lipopolysaccharide (LPS) stimulates the production of a variety of cytokines, including TNF-alpha, from human PBMC; these cytokines in turn influence the development of T cells, supporting a T helper 1 conducive milieu. Human PBMC prepared from whole blood by buoyant density centrifugation were resuspended in CTCM. […] Following incubation for 24 h at 37° C. in 5% CO2-air, the cell culture supernatants were collected and tested for TNF-alpha levels by ‘sandwich’ ELISA. Briefly, 96-well Nunc MaxiSorp (Life Technologies, Paisley, UK) plates were coated with 50 μl of a 2 μg/ml solution of mouse anti-human TNF-alpha monoclonal antibody (Pharmingen, UK) in 0.05 M carbonate/bicarbonate buffer, pH 9.6 overnight at 4° C. […] Following three washes with PBS-Tween, 50 μl of cell culture supernatants were added and incubated overnight at 4° C.; standard human TNF-alpha (Pharmingen, UK) ranging from 2000 to 31.25 pg/ml were included for each plate. […] Following four washes, the bound biotinylated antibody was detected with 50 μl of a 1:1,000 dilution of Streptavidin-peroxidase (Pharmingen, UK). At the end of an hour incubation at room temperature, the plates were thoroughly washed six times with PBS-Tween and the assay was developed by the addition of 100 μl of 0.1 mg/ml of tetramethyl benzidine subtrate (Sigma, Poole, UK) in 0.1 M sodium acetate buffer, pH 6 containing 0.03% H2O2. The enzyme reaction was stopped with 50 μl of 2.5 M H2SO4 after an incubation of 10 minutes at room temperature and the development was read at 450 nm with a spectrophotometric 96-well plate reader (Dynex).
# murine spleen cells = details: literature report; cited from earlier work
molecule,measurement,setting,value
"CCCCCCCCCC(=O)CC(=O)N[C@H]1CCOC1=O [Example 6, N-(3-Oxododecanoyl)-L-homoserine lactone]",effect on proliferation of human PBMC stimulated with Concanavalin A (cpm vs concentration),human PBMC,inhibited proliferation of human PBMC
same,effect on ConA induced splenocyte proliferation (cpm vs concentration),murine splenocytes,inhibits splenocyte proliferation
same,effect on TNF-a production by LPS-stimulated adherent murine peritoneal macrophages,[1],inhibiting
same,effect on LPS induced TNF-α secretion by human PBMC,[2],inhibited the secretion of the T helper 1-supporting cytokine TNF-α
same,effect on concavalin A mitogen stimulated proliferation of murine spleen cells,murine spleen cells,inhibiting
"CCCCCC(=O)CC(=O)N[C@H]1CCOC1=O [OOHL, N-(3-oxooctanoyl)-L-homoserine lactone]",effect on ConA induced splenocyte proliferation (cpm vs concentration),murine splenocytes,failed to inhibit proliferation
N-(3-Hydroxy-9-tetradecenoyl)-L-homoserine lactone [Example 24],IC50,"murine splenocytes; Experiment I, ConA 1 μg/ml, 100,000 spleen cells, read-out: IC50, inhibition of ConA induced murine splenocyte proliferation (column A)",15 µM
"CCCCCCCCCCCC(=O)CC(=O)N[C@H]1CCOC1=O [Example 11, N-(3-Oxotetradecanoyl)-L-homoserine lactone]",effect on proliferation of human PBMC stimulated with Concanavalin A (cpm vs concentration),human PBMC,inhibited proliferation of human PBMC
same,effect on LPS induced TNF-α secretion by human PBMC,[2],inhibited the secretion of the T helper 1-supporting cytokine TNF-α
"CCCC(=O)CC(=O)N[C@H]1CCOC1=O [OHHL, N-(3-oxohexanoyl)-L-homoserine lactone]",effect on LPS induced TNF-α secretion by human PBMC,[2],difference in activity between OHHL and OdDHL is marked
